{"source": "patent US20200261391A1", "about": "“METHODS OF REDUCING THE RISK OF A CARDIOVASCULAR EVENT IN A STATIN-TREATED SUBJECT BY INCREASING SERUM AND PLASMA EPA AND DPA LEVELS” (Amarin Pharmaceuticals Ireland Limited, priority 2019, published 2020)", "tested_on": "patients with elevated triglyceride levels on statin therapy", "test": "REDUCE-IT total (first and subsequent) ischemic events (Example 3; negative binomial, Wei-Lin-Weissfeld, Andersen-Gill, joint frailty models)", "type": "in vivo, human", "parameters": "total (first and subsequent) ischemic events for primary composite endpoint, relative risk reduction / first events, reduction / second events, reduction / third events, reduction / fourth or more events, reduction: concentration or dose not given beside the values", "conditions": "for HR (95% CI), Key Secondary Composite Endpoint / HR (95% CI), Primary Composite Endpoint / RR (95% CI), Key Secondary Composite Endpoint, total events / RR (95% CI), Primary Composite Endpoint, total events: full dataset; for RR (95% CI), Key Secondary Composite Endpoint, total events / RR (95% CI), Primary Composite Endpoint, total events: icosapent ethyl vs placebo", "from_the_text": "The following study was a multi-center, placebo-controlled clinical trial the details of which are described above in Example 1, the REDUCE-IT design. […] The main outcomes were total primary composite endpoint events defined as cardiovascular death, nonfatal myocardial infarction, nonfatal stroke, coronary revascularization, or hospitalization for unstable angina and total key secondary composite endpoint events defined as cardiovascular death, nonfatal myocardial infarction, or nonfatal stroke. In the context of this study, total events refer to any first event as well as any subsequent event. Differences in total events were determined using other statistical models, including Andersen-Gill, Wei-Lin-Weisfeld (Li and Lagakos), both pre-specified, and a post hoc and joint-frailty analysis.\nFor the present prespecified analysis, the primary outcome was the total of first plus subsequent ischemic events consisting of the composite of cardiovascular death, nonfatal myocardial infarction, nonfatal stroke, coronary revascularization, or hospitalization for unstable angina. […] Exploratory analyses of the total of first and subsequent events were also performed for the key secondary composite endpoint.\nBaseline characteristics were compared between treatment groups using the chi-squared test for categorical variables and the Wilcoxon rank sum test for continuous variables. There are several methods for analyzing first and subsequent (recurrent) event data. As a pre-specified statistical method, a negative binomial regression was used to calculate rates and rate ratios for total cardiovascular events, which accounts for the variability in each patient's risk of events. As pre-specified supportive analyses, the modified Wei-Lin-Weissfeld method (Li and Lagakos modification) was used to calculate hazard ratios (HRs) for the time to the first event, second event, or third event. An additional pre-specified analysis, the Andersen-Gill model using a Cox proportional-hazard with the counting-process formulation was performed to model the total events. In addition, in order to account for informative censoring due to cardiovascular death, the HR for total non-fatal events was calculated using a joint frailty model (See Rondeau V. Joint frailty models for recurring events and death using maximum penalized likelihood estimation: application on cancer events. Biostatistics. 2007; 8:708-21). The joint frailty model simultaneously estimates hazard functions for non-fatal and fatal CV events and takes into account the fact that patients who are prone to have nonfatal events have an elevated risk of a cardiovascular death. The application of the joint frailty model used a gamma distribution for the frailty term.\nStatistical analyses using the full adjudicated endpoint events dataset without exclusions using this bundling approach were also determined.", "key": {"[1]": {"conditions": "Andersen-Gill (I) model, adjusted, vs placebo"}, "[2]": {"conditions": "Andersen-Gill (I) model, reduced dataset, vs placebo"}, "[3]": {"conditions": "Andersen-Gill (I) model, unadjusted, vs placebo"}, "[4]": {"conditions": "Andersen-Gill (II) model, adjusted, vs placebo"}, "[5]": {"conditions": "Andersen-Gill (II) model, reduced dataset, vs placebo"}, "[6]": {"conditions": "Andersen-Gill (II) model, unadjusted, vs placebo"}, "[7]": {"conditions": "Joint frailty model, reduced dataset, vs placebo"}, "[8]": {"conditions": "Modified WLW model, reduced dataset, vs placebo"}, "[9]": {"conditions": "Modified WLW, first event, adjusted, vs placebo"}, "[10]": {"conditions": "Modified WLW, first event, unadjusted, vs placebo"}, "[11]": {"conditions": "Modified WLW, second event, adjusted, vs placebo"}, "[12]": {"conditions": "Modified WLW, second event, unadjusted, vs placebo"}, "[13]": {"conditions": "Modified WLW, third event, adjusted, vs placebo"}, "[14]": {"conditions": "Modified WLW, third event, unadjusted, vs placebo"}, "[15]": {"conditions": "N = 4089, same-day multiple endpoints handled as a single event"}, "[16]": {"conditions": "Negative binomial model, adjusted for stratification factors"}, "[17]": {"conditions": "Negative binomial model, reduced dataset, vs placebo"}, "[18]": {"conditions": "Negative binomial model, unadjusted"}, "[19]": {"conditions": "Wei-Lin-Weissfeld model, Example 3"}, "[20]": {"conditions": "per 1000 patients treated for five years"}}, "data": [{"smiles": "CC/C=C\\C/C=C\\C/C=C\\C/C=C\\C/C=C\\CCCC(=O)OCC", "note": "[icosapent ethyl, eicosapentaenoic acid ethyl ester]", "values": [{"measurement": "HR (95% CI), Key Secondary Composite Endpoint", "setting": "[1]", "value": 0.71}, {"measurement": "HR (95% CI), Primary Composite Endpoint", "setting": "[1]", "value": 0.68}, {"measurement": "Adjusted HR, key secondary composite endpoint, total events", "setting": "[2]", "value": 0.72}, {"measurement": "Adjusted HR, primary composite endpoint, total events", "setting": "[2]", "value": 0.69}, {"measurement": "Unadjusted HR, key secondary composite endpoint, total events", "setting": "[2]", "value": 0.72}, {"measurement": "Unadjusted HR, primary composite endpoint, total events", "setting": "[2]", "value": 0.69}, {"measurement": "HR (95% CI), Key Secondary Composite Endpoint", "setting": "[3]", "value": 0.71}, {"measurement": "HR (95% CI), Primary Composite Endpoint", "setting": "[3]", "value": 0.68}, {"measurement": "HR (95% CI), Key Secondary Composite Endpoint", "setting": "[4]", "value": 0.71}, {"measurement": "HR (95% CI), Primary Composite Endpoint", "setting": "[4]", "value": 0.68}, {"measurement": "Adjusted HR, key secondary composite endpoint, total events", "setting": "[5]", "value": 0.72}, {"measurement": "Adjusted HR, primary composite endpoint, total events", "setting": "[5]", "value": 0.69}, {"measurement": "Unadjusted HR, key secondary composite endpoint, total events", "setting": "[5]", "value": 0.72}, {"measurement": "Unadjusted HR, primary composite endpoint, total events", "setting": "[5]", "value": 0.69}, {"measurement": "HR (95% CI), Key Secondary Composite Endpoint", "setting": "[6]", "value": 0.71}, {"measurement": "HR (95% CI), Primary Composite Endpoint", "setting": "[6]", "value": 0.68}, {"measurement": "first events, reduction", "setting": "Example 3", "value": 25, "unit": "%"}, {"measurement": "fourth or more events, reduction", "setting": "Example 3", "value": 48, "unit": "%"}, {"measurement": "second events, reduction", "setting": "Example 3", "value": 32, "unit": "%"}, {"measurement": "third events, reduction", "setting": "Example 3", "value": 31, "unit": "%"}, {"measurement": "HR, Cardiovascular Death, key secondary endpoint, adjusted", "setting": "[7]", "value": 0.79}, {"measurement": "HR, Cardiovascular Death, key secondary endpoint, unadjusted", "setting": "[7]", "value": 0.79}, {"measurement": "HR, Cardiovascular Death, primary endpoint, adjusted", "setting": "[7]", "value": 0.80}, {"measurement": "HR, Cardiovascular Death, primary endpoint, unadjusted", "setting": "[7]", "value": 0.80}, {"measurement": "HR, Non-fatal Cardiovascular Event, key secondary endpoint, adjusted", "setting": "[7]", "value": 0.68}, {"measurement": "HR, Non-fatal Cardiovascular Event, key secondary endpoint, unadjusted", "setting": "[7]", "value": 0.68}, {"measurement": "HR, Non-fatal Cardiovascular Event, primary endpoint, adjusted", "setting": "[7]", "value": 0.67}, {"measurement": "HR, Non-fatal Cardiovascular Event, primary endpoint, unadjusted", "setting": "[7]", "value": 0.66}, {"measurement": "Adjusted HR, key secondary composite endpoint, first event", "setting": "[8]", "value": 0.74}, {"measurement": "Adjusted HR, key secondary composite endpoint, second event", "setting": "[8]", "value": 0.75}, {"measurement": "Adjusted HR, key secondary composite endpoint, third event", "setting": "[8]", "value": 0.79}, {"measurement": "Adjusted HR, primary composite endpoint, first event", "setting": "[8]", "value": 0.75}, {"measurement": "Adjusted HR, primary composite endpoint, second event", "setting": "[8]", "value": 0.68}, {"measurement": "Adjusted HR, primary composite endpoint, third event", "setting": "[8]", "value": 0.69}, {"measurement": "Unadjusted HR, key secondary composite endpoint, first event", "setting": "[8]", "value": 0.74}, {"measurement": "Unadjusted HR, key secondary composite endpoint, second event", "setting": "[8]", "value": 0.75}, {"measurement": "Unadjusted HR, key secondary composite endpoint, third event", "setting": "[8]", "value": 0.79}, {"measurement": "Unadjusted HR, primary composite endpoint, first event", "setting": "[8]", "value": 0.76}, {"measurement": "Unadjusted HR, primary composite endpoint, second event", "setting": "[8]", "value": 0.69}, {"measurement": "Unadjusted HR, primary composite endpoint, third event", "setting": "[8]", "value": 0.69}, {"measurement": "HR (95% CI), Key Secondary Composite Endpoint", "setting": "[9]", "value": 0.74}, {"measurement": "HR (95% CI), Primary Composite Endpoint", "setting": "[9]", "value": 0.75}, {"measurement": "HR (95% CI), Key Secondary Composite Endpoint", "setting": "[10]", "value": 0.74}, {"measurement": "HR (95% CI), Primary Composite Endpoint", "setting": "[10]", "value": 0.76}, {"measurement": "HR (95% CI), Key Secondary Composite Endpoint", "setting": "[11]", "value": 0.75}, {"measurement": "HR (95% CI), Primary Composite Endpoint", "setting": "[11]", "value": 0.68}, {"measurement": "HR (95% CI), Key Secondary Composite Endpoint", "setting": "[12]", "value": 0.75}, {"measurement": "HR (95% CI), Primary Composite Endpoint", "setting": "[12]", "value": 0.69}, {"measurement": "HR (95% CI), Key Secondary Composite Endpoint", "setting": "[13]", "value": 0.79}, {"measurement": "HR (95% CI), Primary Composite Endpoint", "setting": "[13]", "value": 0.70}, {"measurement": "HR (95% CI), Key Secondary Composite Endpoint", "setting": "[14]", "value": 0.79}, {"measurement": "HR (95% CI), Primary Composite Endpoint", "setting": "[14]", "value": 0.70}, {"measurement": "Key secondary endpoint: Total events before reduction, % of overall events", "setting": "N = 4089", "value": 42.0, "unit": "%"}, {"measurement": "Primary endpoint: Total events before reduction, % of overall events", "setting": "N = 4089", "value": "(40.7) %"}, {"measurement": "Key secondary endpoint: Fatal events, % of overall events", "setting": "N = 4089, after reduction", "value": 45.0, "unit": "%"}, {"measurement": "Key secondary endpoint: Non-fatal events, % of overall events", "setting": "N = 4089, after reduction", "value": 40.9, "unit": "%"}, {"measurement": "Primary endpoint: Fatal events, % of overall events", "setting": "N = 4089, after reduction", "value": "(45.0) %"}, {"measurement": "Primary endpoint: Non-fatal events, % of overall events", "setting": "N = 4089, after reduction", "value": "(40.4) %"}, {"measurement": "Key secondary endpoint: Total events after reduction, % of overall events", "setting": "[15]", "value": 42.1, "unit": "%"}, {"measurement": "Primary endpoint: Total events after reduction, % of overall events", "setting": "[15]", "value": "(41.0) %"}, {"measurement": "RR (95% CI), Key Secondary Composite Endpoint, total events", "setting": "[16]", "value": 0.71}, {"measurement": "RR (95% CI), Primary Composite Endpoint, total events", "setting": "[16]", "value": 0.69}, {"measurement": "Adjusted RR, key secondary composite endpoint, total events", "setting": "[17]", "value": 0.72}, {"measurement": "Adjusted RR, primary composite endpoint, total events", "setting": "[17]", "value": 0.70}, {"measurement": "Unadjusted RR, key secondary composite endpoint, total events", "setting": "[17]", "value": 0.71}, {"measurement": "Unadjusted RR, primary composite endpoint, total events", "setting": "[17]", "value": 0.68}, {"measurement": "RR (95% CI), Key Secondary Composite Endpoint, total events", "setting": "[18]", "value": 0.71}, {"measurement": "RR (95% CI), Primary Composite Endpoint, total events", "setting": "[18]", "value": 0.67}, {"measurement": "first occurrence of primary composite endpoint, HR", "setting": "[19]", "value": 0.75}, {"measurement": "second occurrence of primary composite endpoint, HR", "setting": "[19]", "value": 0.68}, {"measurement": "total (first and subsequent) ischemic events for primary composite endpoint, relative risk reduction", "setting": "in vivo", "value": 30, "unit": "%"}, {"measurement": "cardiovascular deaths prevented", "setting": "[20]", "value": 12}, {"measurement": "coronary revascularizations prevented", "setting": "[20]", "value": 76}, {"measurement": "episodes of hospitalization for unstable angina prevented", "setting": "[20]", "value": 16}, {"measurement": "myocardial infarctions prevented", "setting": "[20]", "value": 42}, {"measurement": "strokes prevented", "setting": "[20]", "value": 14}, {"measurement": "total primary endpoint events prevented", "setting": "[20]", "value": "approximately 159"}, {"measurement": "total key secondary endpoint event rate", "setting": "placebo 44", "value": 32, "unit": "per 1000 patient years"}, {"measurement": "total (first and subsequent) primary endpoint event rate", "setting": "placebo 89", "value": 61, "unit": "per 1000 patient years"}, {"measurement": "total key secondary endpoint events, RR", "setting": "vs placebo", "value": 0.72}, {"measurement": "total primary endpoint events, rate ratio (RR)", "setting": "vs placebo", "value": 0.70}]}]}
